Converted amounts (≈) assume the structure as drawn.
Columns and labels:
Test in all cases: MIC, CLSI broth microdilution
Assay type in all cases: cell-based
[1] = tested on: E. coli AECO001 (Fluoroquinolone susceptible, ATCC25922); conditions: Table 2, 35° C., 20 hours
Procedure, shortened: (§1)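 MICs were read after 20 hours at 35° C in ambient air, with a final inoculum of 5×10^5 CFU/mL from saline-suspended overnight colonies. Serial two-fold dilutions in Mueller Hinton Broth followed the CLSI reference method (M7-A7), with QC strains E. coli ATCC 25922, P. aeruginosa ATCC 27853 and S. aureus ATCC 29213.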

[2] = tested on: S. aureus ASAU001 (Fluoroquinolone-susceptible, ATCC29213); conditions: for MIC ASAU 001: Table 2
Procedure, shortened: as §1

[3] = tested on: A. baumannii AABA1009 (Fluoroquinolone-resistant); conditions: for MIC AABA 1009: Table 2
Procedure, shortened: as §1

[4] = tested on: P. aeruginosa APAE054 (Fluoroquinolone-resistant); conditions: for MIC APAE 054: Table 2
Procedure, shortened: as §1

[5] = tested on: P. aeruginosa APAE001 (Fluoroquinolone-susceptible, ATCC27853); conditions: for MIC APAE 001: Table 2
Procedure, shortened: as §1

[6] = tested on: S. pneumoniae ASPN1027 (Fluoroquinolone-resistant); conditions: for MIC ASPN 1027: Table 2
Procedure, shortened: as §1

[7] = tested on: A. baumannii AABA1065 (Fluoroquinolone-susceptible); conditions: for MIC AABA 1065: Table 2
Procedure, shortened: as §1

[8] = tested on: S. pneumoniae ASPN001 (Fluoroquinolone-susceptible, ATCC49619); conditions: for MIC ASPN 001: Table 2
Procedure, shortened: as §1

[9] = tested on: E. coli AECO066 (Fluoroquinolone-resistant); conditions: for MIC AECO 066: Table 2
Procedure, shortened: as §1

[10] = tested on: S. aureus ASAU1031 (Fluoroquinolone-resistant); conditions: for MIC ASAU 1031: Table 2
Procedure, shortened: as §1

MIC ([1]; Escherichia coli, read-out: MIC AECO 001) [µg/mL] | MIC ([2]; Staphylococcus aureus, Table 2, read-out: MIC ASAU 001) [µg/mL] | MIC ([3]; Acinetobacter baumannii, Table 2, read-out: MIC AABA 1009) [µg/mL] | MIC ([4]; Pseudomonas aeruginosa, Table 2, read-out: MIC APAE 054) [µg/mL] | MIC ([5]; Pseudomonas aeruginosa, Table 2, read-out: MIC APAE 001) [µg/mL] | MIC ([6]; Streptococcus pneumoniae, Table 2, read-out: MIC ASPN 1027) [µg/mL] | MIC ([7]; Acinetobacter baumannii, Table 2, read-out: MIC AABA 1065) [µg/mL] | MIC ([8]; Streptococcus pneumoniae, Table 2, read-out: MIC ASPN 001) [µg/mL] | MIC ([9]; Escherichia coli, Table 2, read-out: MIC AECO 066) [µg/mL] | MIC ([10]; Staphylococcus aureus, Table 2, read-out: MIC ASAU 1031) [µg/mL] | MIC AECO 001 [1] | MIC ASAU 001 [2] | MIC AABA 1009 [3] | MIC APAE 054 [4] | MIC ASPN 1027 [6] | MIC AABA 1065 [7] | MIC ASPN 001 [8] | MIC AECO 066 [9] | Compound | MIC APAE 001 [5] | MIC ASAU 1031 [10]
≤ 1 | ≤ 1 | > 8 | > 8 | ≤ 1 | 1 to 8 (≈ 2.71 to 21.7 µM) | ≤ 1 | ≤ 1 | > 8 | 1 to 8 (≈ 2.71 to 21.7 µM) | – | – | – | – | – | – | – | – | N[C@H]1CC2CC=Cc3c(c(F)cc4c(=O)c(C(=O)O)cn(C5CC5)c34)N2C1 (stereo partly shown) [32 /5] | – | –
– | – | – | – | – | – | – | – | – | – | A (MIC's of 1.0 μg/mL or less = A) | A (MIC's of 1.0 μg/mL or less = A) | C (MIC's of greater than 8.0 μg/mL = C) | C (MIC's of greater than 8.0 μg/mL = C) | C (MIC's of greater than 8.0 μg/mL = C) | A (MIC's of 1.0 μg/mL or less = A) | A (MIC's of 1.0 μg/mL or less = A) | C (MIC's of greater than 8.0 μg/mL = C) | NC[C@H]1C[C@@H]2CC=Cc3c(c(F)cc4c(=O)c(C(=O)O)cn(C5CC5)c34)N2C1.O=C(O)C(F)(F)F [20/14, (7aS,9R)-9-(Aminomethyl)-4-cyclopropyl-12-fluoro-1-oxo-4,7,7a,8,9,10-hexahydro-1H-pyrrolo[1′,2′:1,7]azepino[2,3-h]quinoline-2-carboxylic acid trifluoroacetate] | B (MIC's of greater than 1.0 μg/mL to 8.0 μg/mL = B) | C (MIC's of greater than 8.0 μg/mL = C)

Compound | MIC ([1]; Escherichia coli, read-out: MIC AECO 001) [µg/mL] | MIC ([2]; Staphylococcus aureus, Table 2, read-out: MIC ASAU 001) [µg/mL] | MIC ([3]; Acinetobacter baumannii, Table 2, read-out: MIC AABA 1009) [µg/mL] | MIC ([4]; Pseudomonas aeruginosa, Table 2, read-out: MIC APAE 054) [µg/mL] | MIC ([5]; Pseudomonas aeruginosa, Table 2, read-out: MIC APAE 001) [µg/mL] | MIC ([6]; Streptococcus pneumoniae, Table 2, read-out: MIC ASPN 1027) [µg/mL] | MIC ([7]; Acinetobacter baumannii, Table 2, read-out: MIC AABA 1065) [µg/mL] | MIC ([8]; Streptococcus pneumoniae, Table 2, read-out: MIC ASPN 001) [µg/mL] | MIC ([9]; Escherichia coli, Table 2, read-out: MIC AECO 066) [µg/mL] | MIC ([10]; Staphylococcus aureus, Table 2, read-out: MIC ASAU 1031) [µg/mL] | MIC AECO 001 [1] | MIC ASAU 001 [2] | MIC AABA 1009 [3] | MIC APAE 054 [4] | MIC ASPN 1027 [6] | MIC AABA 1065 [7] | MIC ASPN 001 [8] | MIC AECO 066 [9] | MIC APAE 001 [5] | MIC ASAU 1031 [10]
NCC1CCN2c3c(F)cc4c(=O)c(C(=O)O)cn(C5CC5)c4c3C=CCC12.O=C(O)C(F)(F)F (racemic) [24/rac-16, (7aS*,8S*)-8-(Aminomethyl)-4-cyclopropyl-12-fluoro-1-oxo-4,7,7a,8,9,10-hexahydro-1H-pyrrolo[1′,2′:1,7]aze-pino-[2,3-h]quinoline-2-carboxylic acid trifluoroacetate] | – | – | – | – | – | – | – | – | – | – | A (MIC's of 1.0 μg/mL or less = A) | A (MIC's of 1.0 μg/mL or less = A) | C (MIC's of greater than 8.0 μg/mL = C) | C (MIC's of greater than 8.0 μg/mL = C) | B (MIC's of greater than 1.0 μg/mL to 8.0 μg/mL = B) | A (MIC's of 1.0 μg/mL or less = A) | A (MIC's of 1.0 μg/mL or less = A) | C (MIC's of greater than 8.0 μg/mL = C) | B (MIC's of greater than 1.0 μg/mL to 8.0 μg/mL = B) | B (MIC's of greater than 1.0 μg/mL to 8.0 μg/mL = B)
O=C(O)c1cn(C2CC2)c2c3c(c(F)cc2c1=O)N1CCCC1CCC3 (stereo not shown) [27/7, 4-Cyclopropyl-12-fluoro-1-oxo-4,5,6,7,7a,8,9,10-octahydro-1H-pyrrolo[1′,2′:1,7]azepino[2,3-h]quinoline-2-carboxylic acid] | – | – | – | – | – | – | – | – | – | – | B (MIC's of greater than 1.0 μg/mL to 8.0 μg/mL = B) | A (MIC's of 1.0 μg/mL or less = A) | C (MIC's of greater than 8.0 μg/mL = C) | C (MIC's of greater than 8.0 μg/mL = C) | C (MIC's of greater than 8.0 μg/mL = C) | C (MIC's of greater than 8.0 μg/mL = C) | B (MIC's of greater than 1.0 μg/mL to 8.0 μg/mL = B) | C (MIC's of greater than 8.0 μg/mL = C) | C (MIC's of greater than 8.0 μg/mL = C) | B (MIC's of greater than 1.0 μg/mL to 8.0 μg/mL = B)

Source: patent US20120058989A1, “ANTIBACTERIAL FLUOROQUINOLONE ANALOGS” (Achaogen, Inc., priority 2008, published 2012)
